The source of these data is patent US20240101540A1, “TARGETED PROTEIN DEGRADATION OF PARP14 FOR USE IN THERAPY” (Ribon Therapeutics, Inc., priority 2022, published 2024).

The structures appear in SMILES notation. Structures can show the parent of a compound that is named as a salt.

In this assay the target is T1, catalytic domain of human PARP14 (residues 1611 to 1801) with NanoLuc tag (Homo sapiens, UniProt Q460N5).
T1 construct: expressed in transfected cells; host or cells: HEK-293T cells (ATCC), pcDNA3.1(-) vector
T1 sequence (Q460N5 1611-1801): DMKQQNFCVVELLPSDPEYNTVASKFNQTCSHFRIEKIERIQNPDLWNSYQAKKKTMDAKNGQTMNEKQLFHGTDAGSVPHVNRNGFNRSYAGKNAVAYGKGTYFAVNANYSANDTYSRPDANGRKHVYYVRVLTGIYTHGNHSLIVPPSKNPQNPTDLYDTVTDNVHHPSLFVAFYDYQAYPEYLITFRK
The assay is described as follows: NanoLuc assay for the degradation of PARP14 (NanoLuc-tagged PARP14 overexpressed in HEK-293T cells, 2 hours). Type of assay: cell-based. The settings on record: Assay A (Example A): NanoLuc-tagged PARP14 degradation in HEK-293T cells, read-out: DC50.
As usually defined, the DC50 is the concentration at which degradation of the target reaches its halfway point. With `O=C1CCC(N2Cc3c(cccc3N3CC(CN4CCC(COc5cc(F)c6c(=O)[nH]c(CSC7CCOCC7)nc6c5)CC4)C3)C2=O)C(=O)N1` (centres unmarked) [Example 38, 3-(4-(3-((4-(((5-fluoro-4-oxo-2-(((tetrahydro-2H-pyran-4-yl)thio)methyl)-3,4-dihydroquinazolin-7-yl)oxy)methyl)piperidin-1-yl)methyl)azetidin-1-yl)-1-oxoisoindolin-2-yl)piperidine-2,6-dione], the DC50 is < 100 nM.

Regarding `O=C(CN1CCC(COc2cc(F)c3c(=O)[nH]c(CSC4CCOCC4)nc3c2)CC1)NCCCCNc1cccc2c1C(=O)N(C1CCC(=O)NC1=O)C2=O` (centres unmarked) [Example 8, N-(4-((2-(2,6-dioxopiperidin-3-yl)-1,3-dioxoisoindolin-4-yl)amino)butyl)-2-(4-(((5-fluoro-4-oxo-2-(((tetrahydro-2H-pyran-4-yl)thio)methyl)-3,4-dihydroquinazolin-7-yl)oxy)methyl)piperidin-1-yl)acetamide], the DC50 was < 100 nM.

As for `O=C1CCC(N2C(=O)c3cccc(N4CC(CN5CCC(COc6cc(F)c7c(=O)[nH]c(CSC8CCOCC8)nc7c6)CC5)C4)c3C2=O)C(=O)N1` (centres unmarked) [Example 37, 2-(2,6-dioxopiperidin-3-yl)-4-(3-((4-(((5-fluoro-4-oxo-2-(((tetrahydro-2H-pyran-4-yl)thio)methyl)-3,4-dihydroquinazolin-7-yl)oxy)methyl)piperidin-1-yl)methyl)azetidin-1-yl)isoindoline-1,3-dione], the DC50 is < 100 nM.

With `O=C1CCC(Nc2ccc(N3CCN(CCN4CCC(COc5cc(F)c6c(=O)[nH]c(CC7CCCC7)nc6c5)CC4)CC3)cc2)C(=O)N1` (centres unmarked) [Example 96, 3-((4-(4-(2-(4-(((2-(cyclopentylmethyl)-5-fluoro-4-oxo-3,4-dihydroquinazolin-7-yl)oxy)methyl)piperidin-1-yl)ethyl)piperazin-1-yl)phenyl)amino)piperidine-2,6-dione], the DC50 was < 100 nM.

For `O=C1CCC(Nc2ccc(N3CC(N4CCC(COc5cc(F)c6c(=O)[nH]c(CSC7CCOCC7)nc6c5)C(F)(F)C4)C3)cc2)C(=O)N1` (centres unmarked) [Example 52, 3-((4-(3-(3,3-difluoro-4-(((5-fluoro-4-oxo-2-(((tetrahydro-2H-pyran-4-yl)thio)methyl)-3,4-dihydroquinazolin-7-yl)oxy)methyl)piperidin-1-yl)azetidin-1-yl)phenyl)amino)piperidine-2,6-dione formate salt], the DC50 is < 100 nM.

Regarding `O=C1CCN(c2cccc(C#CCN3CCC(COc4cc(F)c5c(=O)[nH]c(CSC6CCOCC6)nc5c4)CC3)c2)C(=O)N1` [Example 33, 1-(3-(3-(4-(((5-fluoro-4-oxo-2-(((tetrahydro-2H-pyran-4-yl)thio)methyl)-3,4-dihydroquinazolin-7-yl)oxy)methyl)piperidin-1-yl)prop-1-yn-1-yl)phenyl)dihydropyrimidine-2,4(1H,3H)-dione], the DC50 is < 100 nM.

Consider `O=C1CCC(Nc2ccc(N3CCC(N4CCN(CCc5cc(F)c6c(=O)[nH]c(CSC7CCOCC7)nc6c5)CC4)CC3)cc2)C(=O)N1` (centres unmarked) [Example 86, 3-((4-(4-(4-(2-(5-fluoro-4-oxo-2-(((tetrahydro-2H-pyran-4-yl)thio)methyl)-3,4-dihydroquinazolin-7-yl)ethyl)piperazin-1-yl)piperidin-1-yl)phenyl)amino)piperidine-2,6-dione], for which the DC50 was < 100 nM.

For the compound `O=C1CCC(Nc2ccc(OC3CC(N4CCC(COc5cc(F)c6c(=O)[nH]c(CSC7CCOCC7)nc6c5)CC4)C3)cc2)C(=O)N1` (centres unmarked) [Example 81, 3-((4-(3-(4-(((5-fluoro-4-oxo-2-(((tetrahydro-2H-pyran-4-yl)thio)methyl)-3,4-dihydroquinazolin-7-yl)oxy)methyl)piperidin-1-yl)cyclobutoxy)phenyl)amino)piperidine-2,6-dione], the 50% degradation concentration (DC50) was < 100 nM.

Take `O=C1CCC(N2C(=O)c3cccc(N4CCC(CN5CCC(C(=O)N6CCC(COc7cc(F)c8c(=O)[nH]c(CSC9CCOCC9)nc8c7)CC6)CC5)CC4)c3C2=O)C(=O)N1` (centres unmarked) [Example 20, 2-(2,6-dioxopiperidin-3-yl)-4-(4-((4-(4-(((5-fluoro-4-oxo-2-(((tetrahydro-2H-pyran-4-yl)thio)methyl)-3,4-dihydroquinazolin-7-yl)oxy)methyl)piperidine-1-carbonyl)piperidin-1-yl)methyl)piperidin-1-yl)isoindoline-1,3-dione]: the DC50 was < 100 nM.

As to `O=C1CCC(Nc2ccc(N3CCN(CCN4CCC(COc5cc(F)c6c(=O)[nH]c(CSC7CCOCC7)nc6c5)CC4)CC3)nc2)C(=O)N1` (centres unmarked) [Example 69, 3-((6-(4-(2-(4-(((5-fluoro-4-oxo-2-(((tetrahydro-2H-pyran-4-yl)thio)methyl)-3,4-dihydroquinazolin-7-yl)oxy)methyl)piperidin-1-yl)ethyl)piperazin-1-yl)pyridin-3-yl)amino)piperidine-2,6-dione], the DC50 was < 100 nM.

With `O=C1CCC(c2ccc(NCC#CCN3CCC(COc4cc(F)c5c(=O)[nH]c(CSC6CCOCC6)nc5c4)CC3)cc2)C(=O)N1` (centres unmarked) [Example 45, 3-(4-((4-(4-(((5-fluoro-4-oxo-2-(((tetrahydro-2H-pyran-4-yl)thio)methyl)-3,4-dihydroquinazolin-7-yl)oxy)methyl)piperidin-1-yl)but-2-yn-1-yl)amino)phenyl)piperidine-2,6-dione], the DC50 was < 100 nM.

For `O=C1CCC(N2C(=O)c3ccc(C#CC4CCN(CCN5CCC(COc6cc(F)c7c(=O)[nH]c(CSC8CCOCC8)nc7c6)CC5)CC4)cc3C2=O)C(=O)N1` (centres unmarked) [Example 72, 2-(2,6-dioxopiperidin-3-yl)-5-((1-(2-(4-(((5-fluoro-4-oxo-2-(((tetrahydro-2H-pyran-4-yl)thio)methyl)-3,4-dihydroquinazolin-7-yl)oxy)methyl)piperidin-1-yl)ethyl)piperidin-4-yl)ethynyl)isoindoline-1,3-dione], the DC50 is < 100 nM.

With `O=C1CC[C@H](Nc2ccc(N3CCN(CCN4CCC(COc5cc(F)c6c(=O)[nH]c(CSC7CCOCC7)nc6c5)CC4)CC3)cc2)C(=O)N1` (single isomer, unassigned) [Example 48a], the DC50 is < 100 nM.

Regarding `Cn1c(=O)n(C2CCC(=O)NC2=O)c2ccc(C3CCN(CCN4CCC(COc5cc(F)c6c(=O)[nH]c(CSC7CCOCC7)nc6c5)CC4)CC3)cc21` (centres unmarked) [Example 78, 3-(5-(1-(2-(4-(((5-fluoro-4-oxo-2-(((tetrahydro-2H-pyran-4-yl)thio)methyl)-3,4-dihydroquinazolin-7-yl)oxy)methyl)piperidin-1-yl)ethyl)piperidin-4-yl)-3-methyl-2-oxo-2,3-dihydro-1H-benzo[d]imidazol-1-yl)piperidine-2,6-dione], the DC50 was < 100 nM.
